The IC50 is the midpoint of a concentration-inhibition curve.

The test system of data set [1] is B16 melanoma. As to the kind of experiment: MTT in vitro cytotoxicity assay, B16. Type of data set: cell-based, mouse. From the text: (§1) One of the parameters used as the basis for colorimetric assays is the metabolic activity of viable cells. For example, a microtiter assay which uses the tetrazolium salt 3-[4,5-Dimethylthiazol-2-yl]-2,5-diphenyltetrazolium bromide; Thiazolyl blue (hereinafter MTT) is now widely used to quantitate cell proliferation and cytotoxicity, for instance, in drug screening programs and in chemosensitivity testing. Because tetrazolium salts are cleaved only by metabolically active cells, these assays detect viable cells exclusively. In the case of the MTT-assay, yellow soluble tetrazolium salt is reduced to colored water-insoluble formazan salt. After it is solubilized, the formazan formed can easily and rapidly be quantified in a conventional ELISA plate reader at 570 nm (maximum absorbance). The quantity of reduced formazan corresponds to number of vital cells in the culture. […]
(§2) The cell suspensions that were prepared and diluted according to the particular cell type and the expected target cell density (2,500-30,000 cells per well based on cell growth characteristics) were added by pipet (80 μl) into 96 well microtiter plates. […] Usually, test compound were evaluated at six 4-fold dilutions. […] The optical density (OD) was measured at 540 nm with the Labsystem iEMS Reader MF (UK). […]

In data set [2] the test system is U937. As to the kind of experiment: MTT in vitro cytotoxicity assay, U937. The data set is classed as cell-based. From the text:
(§3) One of the parameters used as the basis for colorimetric assays is the metabolic activity of viable cells. For example, a microtiter assay which uses the tetrazolium salt 3-[4,5-Dimethylthiazol-2-yl]-2,5-diphenyltetrazolium bromide; Thiazolyl blue (hereinafter MTT) is now widely used to quantitate cell proliferation and cytotoxicity, for instance, in drug screening programs and in chemosensitivity testing. Because tetrazolium salts are cleaved only by metabolically active cells, these assays detect viable cells exclusively. In the case of the MTT-assay, yellow soluble tetrazolium salt is reduced to colored water-insoluble formazan salt. After it is solubilized, the formazan formed can easily and rapidly be quantified in a conventional ELISA plate reader at 570 nm (maximum absorbance). The quantity of reduced formazan corresponds to number of vital cells in the culture.
(§4) The cell suspensions that were prepared and diluted according to the particular cell type and the expected target cell density (2,500-30,000 cells per well based on cell growth characteristics) were added by pipet (80 μl) into 96 well microtiter plates. Inoculates were allowed a preincubation period of 24 hours at 37° C. and 5% CO2 for stabilization. […] Usually, test compound were evaluated at six 4-fold dilutions. […] The optical density (OD) was measured at 540 nm with the Labsystem iEMS Reader MF (UK). […]

The subject of data set [3] is B16F10 melanoma. As to the kind of experiment: MTT in vitro cytotoxicity assay, B16F10. The data set is classed as cell-based, mouse.
Source text: as §1, §2

Data set [4] concerns human breast carcinoma cell line MCF-7. As to the kind of experiment: MTT in vitro cytotoxicity assay, MCF7. Type of data set: cell-based.
Source text: as §1, §2

Data set [5] relates to tumor cell lines. As to the kind of experiment: MTT in vitro cytotoxicity, panel of tumor cell lines. The data set is classed as cell-based. The conditions noted are these: summary of Table 1.
Source text: as §1, §2

Data set [6] has as its system promyelocytic leukemia HL-60. The data set is described as follows: MTT in vitro cytotoxicity assay, HL-60. Type of data set: cell-based, human.
Source text: as §1, §2

Data set [7] relates to mouse immortalized bone marrow macrophages B2.4. As to the kind of experiment: MTT in vitro cytotoxicity assay, B2#4. The data set is classed as cell-based. Conditions: 72 hours incubation.
Source text: as §1, §2

Data set [8] deals with L1210 leukemia. The data set is described as follows: MTT in vitro cytotoxicity assay, L1210. The data set is classed as cell-based, mouse.
Source text: as §1, §2

In data set [9] the test system is mouse immortalized bone marrow macrophages B10A.4. As to the kind of experiment: MTT in vitro cytotoxicity assay, B10#4. Type of data set: cell-based.
Source text: as §1, §2

In data set [10] the test system is normal human lymphocytes. The data set is described as follows: MTT in vitro cytotoxicity assay, lymphocytes. The data set is classed as cell-based. Conditions: 72 hours incubation.
Source text: as §3, §4

Data set [11] concerns CEM cells. As to the kind of experiment: Apoptosis by phase contrast and electron microscopy. The data set is classed as cell-based, human. The conditions noted are these: 50 μm, 8 hours (FIG. 3).
Data set [12] has as its system mouse fibroblasts NIH3T3. The data set is described as follows: MTT in vitro cytotoxicity assay, NIH3T3. Type of data set: cell-based.
Source text: as §1, §2

The test system of data set [13] is Human T-lymphoblastic leukemia cell line CEM. The data set is described as follows: MTT in vitro cytotoxicity assay, CEM. Conditions: 72 hours incubation. The data set is classed as cell-based.
Source text: as §1, §2

Data set [14] relates to cervical carcinoma cells HELA. The data set is described as follows: MTT in vitro cytotoxicity assay, HELA. Type of data set: cell-based. The conditions noted are these: 72 hours incubation.
Source text: as §1, §2

Data set [15] deals with P388D1 leukemia. The data set is described as follows: In vivo antitumor activity, intraperitoneally transplanted P388D1 leukemia. Conditions: DBA-2 mice, 1 mg 4x daily for 7 days.
In data set [16] the test system is B16 melanoma. The data set is described as follows: In vivo antitumor activity, subcutaneously inoculated B16 melanoma. The conditions noted are these: C57BL-10 mice, 1 mg subcutaneously 4x daily for 7 days.
The subject of data set [17] is P388D1 leukemia. As to the kind of experiment: MTT in vitro cytotoxicity assay, P388D1. Type of data set: cell-based, mouse.
Source text: as §1, §2

In data set [18] the test system is CEM cells. As to the kind of experiment: Apoptosis and cell cycle analysis by FACS (DNA content). Type of data set: cell-based, human. The conditions noted are these: 50 μm (FIG. 4), method 70 μM, 3-24 hours. How it is done: Cells (1×10^6/ml) were cultured in 6-well plates with or without 70 μM concentration of test compound at 37° C. and 5% CO2 for 3-24 hours. Following incubation, cells were pelleted, washed in Hank's buffered salt solution and fixed in 96% ethanol overnight at −20° C. Low molecular weight apoptotic DNA was extracted in citrate buffer. RNA was cleaved using RNAse (50 mg/ml).

For data set [19] the following is noted: mouse.
Method: in vivo anti-cancer activity assays: water insoluble compounds: 50% DMSO, 10 mM HCl in saline.
Cells were trypsinized, washed in PBS and suspended in PBS with 0.5% bovine serum albumin. 0.5 miilion cells from this suspension was applied subcutaneously to C57BL-10 mice. […] The compounds (1 mg) were applied subcutaneously 4× daily, for 7 days.
Cells were scraped, washed in PBS and suspended in PBS with 0.5% bovine serum albumin. 0.5 million cells from this suspension was applied intraperitoneally to DBA-2 mice. […] The compounds (1 mg) were applied subcutaneously 4× daily, for 7 days.

Take `Cn1cnc2c(NCc3ccccc3)nc(NCCO)nc21` [OC, 2-(2-hydroxyethylamino)-6-benzylamino-9-methylpurine]: the IC50 in data set [1] (Mus musculus, B16, 72 hours incubation) stood at 50.4 µM; in data set [2] (Homo sapiens, U-937, 72 hours incubation), 63.8 µM; in data set [3] (Mus musculus, B16-F10, 72 hours incubation), 20.6 µM; in data set [4] (Homo sapiens, MCF7, 72 hours incubation) it was 30.5 µM; in [6] (Homo sapiens, HL-60, 72 hours incubation), 28.9 µM; in data set [7] (Mus musculus, Bone marrow macrophage), 8.1 µM. For the same compound, the IC50 came to 23.5 µM in [8] (Mus musculus, L1210, 72 hours incubation); 20.3 µM in data set [9] (Mus musculus, B104, 72 hours incubation); 267 µM in data set [10] (Homo sapiens, Lymphocyte); 267 µM in data set [12] (Mus musculus, NIH3T3, 72 hours incubation); 20.7 µM in data set [13] (Homo sapiens); 100 µM in data set [14] (Homo sapiens, HeLa). Also, in [17] (Mus musculus, P388D1, 72 hours incubation), the midpoint of inhibition, the IC50, lay at 14.5 µM. Besides, in [5], the “toxicity to tumor cells (in words)” value is “moderately effective”. Moreover, the “apoptosis by phase contrast / electron microscopy” value in data set [11] is “apoptosis had occurred”. In [15], the “in vivo activity, P388D1 leukemia model (survival)” value is recorded as “significant in vivo activity”. Besides, the “in vivo activity, B16 melanoma model (medium survival time)” value in data set [16] was “significant in vivo activity”.
For the compound `CCC(CO)Nc1nc(NCc2ccccc2)c2ncn(C(C)C)c2n1` (stereo not drawn) [ROSC, 2-[(1-ethyl-2-hydroxyethyl)amino]-6-benzylamino-9-isopropylpurine], the “apoptosis by flow cytometric analysis of DNA content” value in data set [18] is “Extensive apoptosis”. For the same compound, the “apoptosis by phase contrast / electron microscopy” value in [11] is “apoptosis had occurred”.
For `CC(C)=CCNc1ncnc2nc[nH]c12` [IP, isopentenyladenine], the concentration for half-maximal inhibition (IC50) in [1] (72 hours incubation) worked out at 267 µM; in data set [2] (72 hours incubation), 267 µM; in data set [3] (72 hours incubation), 267 µM; in data set [4] (72 hours incubation), 267 µM; in data set [6] (72 hours incubation) it was 157 µM; in [7] it was 267 µM. Besides, the IC50 in [8] (72 hours incubation) worked out at 267 µM; in data set [9] (72 hours incubation) it was 267 µM; in data set [10], 267 µM; in data set [12] (72 hours incubation) it was 267 µM; in data set [13] it was 169 µM; in [14] it was 267 µM. In [17] (72 hours incubation), inhibition was half-maximal at 267 µM (IC50). Further, the “toxicity to tumor cells (in words)” value in [5] was “did not show significant toxicity”. For the same compound, the “toxicity in vivo / tissue necrosis at the site of application” value in data set [19] is “no activity and toxicity”. The “in vivo activity, P388D1 leukemia model (survival)” value in [15] was “no activity”. Also, in [16], the “in vivo activity, B16 melanoma model (medium survival time)” value is listed as “no activity”.

The record behind these values is patent publication US6703395B2, “Cyclin dependent kinase inhibitor” (priority 1998, dated 2004).
